Assay results from the NIST ThermoML archive (doi:10.1021/je900596d).
± gives the expanded uncertainty stated by the source.

Conditions: for mass density: Vibrating tube method; for vapor or sublimation pressure: Closed cell (Static) method

FC(F)=C(F)C(F)(F)F [hexafluoropropene]
Conditions | mass density [kg/m3]
357.06 K, 1651 kPa, Fluid (supercritical or subcritical phases) | 106.72 ± 0.16
357.06 K, 1667.9 kPa, Fluid (supercritical or subcritical phases) | 108.13 ± 0.16
357.06 K, 1685.3 kPa, Fluid (supercritical or subcritical phases) | 109.66 ± 0.16
357.06 K, 1702 kPa, Fluid (supercritical or subcritical phases) | 111.18 ± 0.17
357.06 K, 1718.9 kPa, Fluid (supercritical or subcritical phases) | 112.75 ± 0.17
357.06 K, 1735.9 kPa, Fluid (supercritical or subcritical phases) | 114.23 ± 0.17
357.06 K, 1753 kPa, Fluid (supercritical or subcritical phases) | 115.8 ± 0.17
357.06 K, 1769.9 kPa, Fluid (supercritical or subcritical phases) | 117.29 ± 0.18
357.06 K, 1786.9 kPa, Fluid (supercritical or subcritical phases) | 118.92 ± 0.18
357.06 K, 1803 kPa, Fluid (supercritical or subcritical phases) | 120.39 ± 0.18
357.06 K, 1819.2 kPa, Fluid (supercritical or subcritical phases) | 121.89 ± 0.18
357.06 K, 1847.5 kPa, Fluid (supercritical or subcritical phases) | 124.55 ± 0.19
357.06 K, 1875.7 kPa, Fluid (supercritical or subcritical phases) | 127.36 ± 0.19
357.06 K, 1903.2 kPa, Fluid (supercritical or subcritical phases) | 130.04 ± 0.2
357.06 K, 1931.1 kPa, Fluid (supercritical or subcritical phases) | 132.82 ± 0.2
357.06 K, 1957.3 kPa, Fluid (supercritical or subcritical phases) | 135.5 ± 0.21
357.06 K, 1986 kPa, Fluid (supercritical or subcritical phases) | 138.47 ± 0.21
357.06 K, 2038.9 kPa, Fluid (supercritical or subcritical phases) | 144.14 ± 0.22
357.06 K, 2064.4 kPa, Fluid (supercritical or subcritical phases) | 146.83 ± 0.23
357.06 K, 2091.5 kPa, Fluid (supercritical or subcritical phases) | 149.92 ± 0.24
357.06 K, 2116.5 kPa, Fluid (supercritical or subcritical phases) | 152.72 ± 0.24
357.06 K, 2145.2 kPa, Fluid (supercritical or subcritical phases) | 156.08 ± 0.25
357.06 K, 2172.7 kPa, Fluid (supercritical or subcritical phases) | 159.34 ± 0.26
357.06 K, 2200.4 kPa, Fluid (supercritical or subcritical phases) | 162.66 ± 0.26
357.06 K, 2225 kPa, Fluid (supercritical or subcritical phases) | 165.74 ± 0.27
357.06 K, 2253.6 kPa, Fluid (supercritical or subcritical phases) | 169.3 ± 0.28
357.06 K, 2283.1 kPa, Fluid (supercritical or subcritical phases) | 173.12 ± 0.29
357.06 K, 2311 kPa, Fluid (supercritical or subcritical phases) | 176.88 ± 0.3
357.06 K, 2341.3 kPa, Fluid (supercritical or subcritical phases) | 180.98 ± 0.31
357.06 K, 2367.5 kPa, Fluid (supercritical or subcritical phases) | 184.68 ± 0.32
357.06 K, 2394.8 kPa, Fluid (supercritical or subcritical phases) | 188.59 ± 0.33
357.06 K, 2419.3 kPa, Fluid (supercritical or subcritical phases) | 192.26 ± 0.34
357.06 K, 2446.6 kPa, Fluid (supercritical or subcritical phases) | 196.5 ± 0.36
357.06 K, 2475.8 kPa, Fluid (supercritical or subcritical phases) | 201.14 ± 0.37
357.06 K, 2500.5 kPa, Fluid (supercritical or subcritical phases) | 205.14 ± 0.38
357.06 K, 2527.1 kPa, Fluid (supercritical or subcritical phases) | 209.62 ± 0.39
357.06 K, 2552.5 kPa, Fluid (supercritical or subcritical phases) | 214.03 ± 0.42
357.06 K, 2579.2 kPa, Fluid (supercritical or subcritical phases) | 218.88 ± 0.43
357.06 K, 2607.1 kPa, Fluid (supercritical or subcritical phases) | 224.15 ± 0.45
357.06 K, 2634.5 kPa, Fluid (supercritical or subcritical phases) | 229.51 ± 0.48
357.06 K, 2660.8 kPa, Fluid (supercritical or subcritical phases) | 234.97 ± 0.51
357.06 K, 2686.6 kPa, Fluid (supercritical or subcritical phases) | 240.49 ± 0.51
357.06 K, 2714.4 kPa, Fluid (supercritical or subcritical phases) | 246.83 ± 0.55
357.06 K, 2743.6 kPa, Fluid (supercritical or subcritical phases) | 253.76 ± 0.59
357.06 K, 2771 kPa, Fluid (supercritical or subcritical phases) | 260.83 ± 0.66
357.06 K, 2795.2 kPa, Fluid (supercritical or subcritical phases) | 267.52 ± 0.72
357.06 K, 2819.6 kPa, Fluid (supercritical or subcritical phases) | 274.69 ± 0.73
357.06 K, 2846 kPa, Fluid (supercritical or subcritical phases) | 283.07 ± 0.81
357.06 K, 2871.1 kPa, Fluid (supercritical or subcritical phases) | 291.79 ± 1
357.06 K, 2896.7 kPa, Fluid (supercritical or subcritical phases) | 302.07 ± 1.2
357.06 K, 2920.7 kPa, Fluid (supercritical or subcritical phases) | 312.54 ± 1.6
357.06 K, 2945.8 kPa, Fluid (supercritical or subcritical phases) | 324.88 ± 1.3
357.06 K, 2970.4 kPa, Fluid (supercritical or subcritical phases) | 338.77 ± 1.5
357.06 K, 2995.1 kPa, Fluid (supercritical or subcritical phases) | 355.46 ± 2
357.06 K, 3000.2 kPa, Fluid (supercritical or subcritical phases) | 359.35 ± 2.1
357.06 K, 3002.3 kPa, Fluid (supercritical or subcritical phases) | 361.25 ± 2.2
357.06 K, 3004.8 kPa, Fluid (supercritical or subcritical phases) | 363.25 ± 2.3
357.06 K, 3007 kPa, Fluid (supercritical or subcritical phases) | 365.19 ± 2.4
357.06 K, 3009.1 kPa, Fluid (supercritical or subcritical phases) | 367.24 ± 2.4
357.06 K, 3011.2 kPa, Fluid (supercritical or subcritical phases) | 369.24 ± 2.5
357.06 K, 3013.5 kPa, Fluid (supercritical or subcritical phases) | 371.38 ± 2.7
357.06 K, 3017.2 kPa, Fluid (supercritical or subcritical phases) | 375.58 ± 2.8
357.06 K, 3020.4 kPa, Fluid (supercritical or subcritical phases) | 379.51 ± 2.8
357.06 K, 3023.1 kPa, Fluid (supercritical or subcritical phases) | 383.27 ± 2.7
357.06 K, 3025.3 kPa, Fluid (supercritical or subcritical phases) | 386.99 ± 3
357.06 K, 3027.3 kPa, Fluid (supercritical or subcritical phases) | 391.04 ± 3.4
358 K, 3077.4 kPa, Liquid | 720.16 ± 5.3
358 K, 3079.5 kPa, Liquid | 727.89 ± 4.8
358 K, 3081.5 kPa, Liquid | 734.5 ± 4.5
358 K, 3083.8 kPa, Liquid | 736.72 ± 4.4
358 K, 3086 kPa, Liquid | 740.82 ± 4.3
358 K, 3088.2 kPa, Liquid | 744.57 ± 4.6
358 K, 3109.3 kPa, Liquid | 770.42 ± 3.6
358 K, 3111.5 kPa, Liquid | 772.98 ± 3.5
358 K, 3116.7 kPa, Liquid | 777.53 ± 3.4
358 K, 3119.3 kPa, Liquid | 780.08 ± 3.2
358 K, 3122.7 kPa, Liquid | 783.21 ± 3.2
358 K, 3129.1 kPa, Liquid | 787.86 ± 3
358 K, 3135.8 kPa, Liquid | 792.11 ± 2.7
358 K, 3142.4 kPa, Liquid | 796.64 ± 2.7
358 K, 3148.6 kPa, Liquid | 799.79 ± 2.5
358 K, 3156.4 kPa, Liquid | 804.75 ± 2.4
358 K, 3177.8 kPa, Liquid | 815.22 ± 2.1
358 K, 3185.3 kPa, Liquid | 818.23 ± 2
358 K, 3192.2 kPa, Liquid | 821.21 ± 2
358 K, 3200.1 kPa, Liquid | 824.15 ± 1.9
358 K, 3210.8 kPa, Liquid | 828.42 ± 1.9
358 K, 3221.1 kPa, Liquid | 831.96 ± 1.7
358 K, 3231.6 kPa, Liquid | 835.41 ± 1.7
358 K, 3241.7 kPa, Liquid | 838.72 ± 1.7
358 K, 3252.2 kPa, Liquid | 841.71 ± 1.6
358 K, 3262.8 kPa, Liquid | 844.89 ± 1.6
358 K, 3273.9 kPa, Liquid | 847.83 ± 1.6
358 K, 3295.3 kPa, Liquid | 853.38 ± 1.5
358 K, 3306 kPa, Liquid | 855.88 ± 1.5
358 K, 3329 kPa, Liquid | 860.99 ± 1.4
358 K, 3350.7 kPa, Liquid | 865.7 ± 1.4
358 K, 3372.9 kPa, Liquid | 869.87 ± 1.4
358 K, 3394.9 kPa, Liquid | 874.14 ± 1.3
358 K, 3416.1 kPa, Liquid | 877.89 ± 1.3
358 K, 3438.3 kPa, Liquid | 881.69 ± 1.3
358 K, 3460.7 kPa, Liquid | 885.32 ± 1.3
358 K, 3482.9 kPa, Liquid | 888.76 ± 1.2
358 K, 3504.8 kPa, Liquid | 892.14 ± 1.2
358 K, 3528.7 kPa, Liquid | 895.48 ± 1.2
358 K, 3550.1 kPa, Liquid | 898.37 ± 1.2
358 K, 3572 kPa, Liquid | 901.37 ± 1.2
358 K, 3593.3 kPa, Liquid | 903.96 ± 1.2
358 K, 3626 kPa, Liquid | 907.95 ± 1.2
358 K, 3637.5 kPa, Liquid | 909.42 ± 1.2
358 K, 3650.1 kPa, Liquid | 910.79 ± 1.2
358 K, 3672 kPa, Liquid | 913.13 ± 1.2
358 K, 3692.4 kPa, Liquid | 915.48 ± 1.2
358 K, 3737.5 kPa, Liquid | 920.3 ± 1.1
358 K, 3781.6 kPa, Liquid | 924.71 ± 1.1
358 K, 3805.3 kPa, Liquid | 927.04 ± 1.1
358 K, 3827.1 kPa, Liquid | 929.16 ± 1.1
358 K, 3849.3 kPa, Liquid | 931.26 ± 1.1
358 K, 3870.8 kPa, Liquid | 933.33 ± 1.1
358 K, 3892.8 kPa, Liquid | 935.23 ± 1.1
358 K, 3914.1 kPa, Liquid | 937.13 ± 1.1
358 K, 3959.7 kPa, Liquid | 940.96 ± 1.1
358 K, 3983.8 kPa, Liquid | 943.01 ± 1.1
358 K, 4012.7 kPa, Liquid | 945.18 ± 1.1
358 K, 4046.1 kPa, Liquid | 947.77 ± 1.1
358 K, 4078.7 kPa, Liquid | 950.34 ± 1.1
358 K, 4111.6 kPa, Liquid | 952.85 ± 1.1
358 K, 4143.9 kPa, Liquid | 955.16 ± 1.1
358 K, 4176.6 kPa, Liquid | 957.49 ± 1.1

Liquid
Conditions | vapor or sublimation pressure [kPa]
357.06 K | 3017.5 ± 5.3
357.27 K | 3031 ± 5
357.47 K | 3044.2 ± 5.4
357.56 K | 3050.4 ± 5.4
